Experimental data published in ChEMBL document CHEMBL4482311, “Modulators of Prostate-Specific G-Protein Receptor (PSGR/OR51E2) and Methods of Using Same” (2018).
Calls of active or inactive are those of the source. No cut-off for these calls is given here.

Tests used:
Type in all cases: cell-based
[1] = molecular target: T1, Olfactory receptor 51E2 (Homo sapiens) (UniProt Q9H255); test: Agonist activity at PSGR/OR51E2 in human LNCaP cells assessed as induction of change in extracellular metabolites level by measuring asparagine level at 250 uM incubated for 72 hrs by GC/MS analysis
T1 sequence (whole entry): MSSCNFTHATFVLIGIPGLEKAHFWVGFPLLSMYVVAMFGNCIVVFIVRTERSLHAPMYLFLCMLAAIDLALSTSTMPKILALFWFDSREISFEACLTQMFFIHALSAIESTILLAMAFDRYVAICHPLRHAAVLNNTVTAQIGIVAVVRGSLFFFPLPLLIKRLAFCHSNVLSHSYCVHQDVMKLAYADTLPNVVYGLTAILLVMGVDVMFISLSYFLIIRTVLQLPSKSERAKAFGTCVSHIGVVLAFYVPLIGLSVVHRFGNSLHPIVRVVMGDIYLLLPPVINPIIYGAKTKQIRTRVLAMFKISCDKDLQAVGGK

[2] = molecular target: T1, Olfactory receptor 51E2 (Homo sapiens); test: Agonist activity at PSGR/OR51E2 in human LNCaP cells assessed as induction of change in extracellular metabolites level by measuring cystine level at 250 uM incubated for 72 hrs by GC/MS analysis
[3] = molecular target: T1, Olfactory receptor 51E2 (Homo sapiens); test: Agonist activity at PSGR/OR51E2 in human LNCaP cells assessed as induction of change in extracellular metabolites level by measuring serine level at 250 uM incubated for 72 hrs by GC/MS analysis
[4] = molecular target: T1, Olfactory receptor 51E2 (Homo sapiens); test: Agonist activity at PSGR/OR51E2 in human LNCaP cells assessed as induction of change in intracellular metabolites level by measuring pentonic-acids level at 250 uM incubated for 72 hrs by GC/MS analysis
[5] = molecular target: T1, Olfactory receptor 51E2 (Homo sapiens); test: Agonist activity at PSGR/OR51E2 in human LNCaP cells assessed as induction of change in extracellular metabolites level by measuring threose/erythrose level at 250 uM incubated for 72 hrs by GC/MS analysis
[6] = molecular target: T1, Olfactory receptor 51E2 (Homo sapiens); test: Agonist activity at PSGR/OR51E2 in human LNCaP cells assessed as induction of change in extracellular metabolites level by measuring glutaric acid level at 250 uM incubated for 72 hrs by GC/MS analysis
[7] = molecular target: T1, Olfactory receptor 51E2 (Homo sapiens); test: Agonist activity at PSGR/OR51E2 in human LNCaP cells assessed as induction of change in extracellular metabolites level by measuring lactic acid level at 250 uM incubated for 72 hrs by GC/MS analysis
[8] = molecular target: T1, Olfactory receptor 51E2 (Homo sapiens); test: Agonist activity at PSGR/OR51E2 in human LNCaP cells assessed as induction of change in intracellular metabolites level by measuring threonine level at 250 uM incubated for 72 hrs by GC/MS analysis
[9] = molecular target: T1, Olfactory receptor 51E2 (Homo sapiens); test: Agonist activity at PSGR/OR51E2 in human LNCaP cells assessed as induction of change in intracellular metabolites level by measuring spermidine level at 250 uM incubated for 72 hrs by GC/MS analysis
[10] = molecular target: T1, Olfactory receptor 51E2 (Homo sapiens); test: Agonist activity at PSGR/OR51E2 in human LNCaP cells assessed as induction of change in intracellular metabolites level by measuring serine level at 250 uM incubated for 72 hrs by GC/MS analysis
[11] = molecular target: T1, Olfactory receptor 51E2 (Homo sapiens); test: Agonist activity at PSGR/OR51E2 in human LNCaP cells assessed as induction of change in extracellular metabolites level by measuring glutamine level at 250 uM incubated for 72 hrs by GC/MS analysis
[12] = molecular target: T1, Olfactory receptor 51E2 (Homo sapiens); test: Agonist activity at PSGR/OR51E2 in human LNCaP cells assessed as induction of change in intracellular metabolites level by measuring O-methylphosphate level at 250 uM incubated for 72 hrs by GC/MS analysis
[13] = molecular target: T1, Olfactory receptor 51E2 (Homo sapiens); test: Agonist activity at PSGR/OR51E2 in human LNCaP cells assessed as induction of change in intracellular metabolites level by measuring ethanolamine level at 250 uM incubated for 72 hrs by GC/MS analysis
[14] = molecular target: T1, Olfactory receptor 51E2 (Homo sapiens); test: Agonist activity at PSGR/OR51E2 in human LNCaP cells assessed as induction of change in extracellular metabolites level by measuring tyrosine level at 250 uM incubated for 72 hrs by GC/MS analysis
[15] = molecular target: T1, Olfactory receptor 51E2 (Homo sapiens); test: Agonist activity at PSGR/OR51E2 in human LNCaP cells assessed as induction of change in extracellular metabolites level by measuring guanine level at 250 uM incubated for 72 hrs by GC/MS analysis
[16] = molecular target: T1, Olfactory receptor 51E2 (Homo sapiens); test: Agonist activity at PSGR/OR51E2 in human LNCaP cells assessed as induction of change in extracellular metabolites level by measuring alanine level at 250 uM incubated for 72 hrs by GC/MS analysis
[17] = molecular target: T1, Olfactory receptor 51E2 (Homo sapiens); test: Agonist activity at PSGR/OR51E2 in human LNCaP cells assessed as induction of change in extracellular metabolites level by measuring glycine level at 250 uM incubated for 72 hrs by GC/MS analysis
[18] = molecular target: T1, Olfactory receptor 51E2 (Homo sapiens); test: Agonist activity at PSGR/OR51E2 in human LNCaP cells assessed as induction of change in intracellular metabolites level by measuring ornithine level at 250 uM incubated for 72 hrs by GC/MS analysis
[19] = molecular target: T1, Olfactory receptor 51E2 (Homo sapiens); test: Agonist activity at PSGR/OR51E2 in human LNCaP cells assessed as induction of change in intracellular metabolites level by measuring lactic acid level at 250 uM incubated for 72 hrs by GC/MS analysis
[20] = molecular target: T1, Olfactory receptor 51E2 (Homo sapiens); test: Agonist activity at PSGR/OR51E2 in human LNCaP cells assessed as induction of change in extracellular metabolites level by measuring xanthine level at 250 uM incubated for 72 hrs by GC/MS analysis
[21] = molecular target: T1, Olfactory receptor 51E2 (Homo sapiens); test: Agonist activity at PSGR/OR51E2 in human LNCaP cells assessed as induction of change in extracellular metabolites level by measuring lysine level at 250 uM incubated for 72 hrs by GC/MS analysis
[22] = molecular target: T1, Olfactory receptor 51E2 (Homo sapiens); test: Agonist activity at PSGR/OR51E2 in human LNCaP cells assessed as induction of change in intracellular metabolites level by measuring 3-phosphoglyceric acid level at 250 uM incubated for 72 hrs by GC/MS analysis
[23] = molecular target: T1, Olfactory receptor 51E2 (Homo sapiens); test: Agonist activity at PSGR/OR51E2 in human LNCaP cells assessed as induction of change in intracellular metabolites level by measuring malic acid level at 250 uM incubated for 72 hrs by GC/MS analysis
[24] = molecular target: T1, Olfactory receptor 51E2 (Homo sapiens); test: Agonist activity at PSGR/OR51E2 in human LNCaP cells assessed as induction of change in intracellular metabolites level by measuring glucose-6-phosphate level at 250 uM incubated for 72 hrs by GC/MS analysis
[25] = molecular target: T1, Olfactory receptor 51E2 (Homo sapiens); test: Agonist activity at PSGR/OR51E2 in human LNCaP cells assessed as induction of change in intracellular metabolites level by measuring oleic acid level at 250 uM incubated for 72 hrs by GC/MS analysis
[26] = molecular target: T1, Olfactory receptor 51E2 (Homo sapiens); test: Agonist activity at PSGR/OR51E2 in human LNCaP cells assessed as induction of change in extracellular metabolites level by measuring uric acid level at 250 uM incubated for 72 hrs by GC/MS analysis
[27] = molecular target: T1, Olfactory receptor 51E2 (Homo sapiens); test: Agonist activity at PSGR/OR51E2 in human LNCaP cells assessed as induction of change in intracellular metabolites level by measuring fumaric acid level at 250 uM incubated for 72 hrs by GC/MS analysis
[28] = molecular target: T1, Olfactory receptor 51E2 (Homo sapiens); test: Agonist activity at PSGR/OR51E2 in human LNCaP cells assessed as induction of change in intracellular metabolites level by measuring beta-alanine level at 250 uM incubated for 72 hrs by GC/MS analysis
[29] = molecular target: T1, Olfactory receptor 51E2 (Homo sapiens); test: Agonist activity at PSGR/OR51E2 in human LNCaP cells assessed as induction of change in extracellular metabolites level by measuring phenylalanine level at 250 uM incubated for 72 hrs by GC/MS analysis
[30] = molecular target: T1, Olfactory receptor 51E2 (Homo sapiens); test: Agonist activity at PSGR/OR51E2 in human LNCaP cells assessed as induction of change in intracellular metabolites level by measuring inosine level at 250 uM incubated for 72 hrs by GC/MS analysis

Activity [1]: Active | Activity [2]: Active | Activity [3]: Active | Activity [4]: Active | Activity [5]: Active | Activity [6]: Active | Activity [7]: Active | Activity [8]: Active | Activity [9]: Active | Activity [10]: Active | Activity [11]: Active | Activity [12]: Active | Activity [13]: Active | Activity [14]: Active | Activity [15]: Active | Activity [16]: Active | Activity [17]: Active | Activity [18]: Active | Activity [19]: Active | Activity [20]: Active | Activity [21]: Active | Activity [22]: Active | Activity [23]: Active | Activity [24]: Active | Activity [25]: Active | Activity [26]: Active | Activity [27]: Active | Activity [28]: Active | Activity [29]: Active | Activity [30]: Active
SMILES: COc1ccc(NC=O)c(C(=O)CCNC(C)=O)c1
